Conditions: Liquid, Pulse-echo method

COCCOCCOCCOCCOC [2,5,8,11,14-pentaoxapentadecane]
speed of sound [m/s]
Conditions | 293.15 K | 303.15 K | 313.15 K | 323.15 K | 333.15 K | 343.15 K | 353.15 K
100 kPa | 1400.2 | 1361.6 | 1324.5 | 1288 | 1252 | 1216.6 | 1181.6
10000 kPa | 1439.3 | 1402.8 | 1367 | 1332.1 | 1297.9 | 1264.2 | 1231.2
20000 kPa | 1477.3 | 1441.7 | 1407.3 | 1373.8 | 1340.7 | 1308.6 | 1276.9
30000 kPa | 1512.3 | 1478.2 | 1444.9 | 1412.5 | 1380.8 | 1349.9 | 1319.8
40000 kPa | 1546.2 | 1513 | 1480.9 | 1449.5 | 1418.3 | 1388.8 | 1359.8
50000 kPa | 1578.2 | 1546.1 | 1514.8 | 1484.2 | 1454.2 | 1425.3 | 1397.1
60000 kPa | 1609.1 | 1577.7 | 1547.2 | 1517.4 | 1488.4 | 1460.1 | 1432.8
70000 kPa | 1638.4 | 1607.6 | 1578.1 | 1548.8 | 1520.7 | 1493.1 | 1466.5
80000 kPa | 1666.8 | 1637 | 1607.8 | 1579.3 | 1551.9 | 1524.7 | 1498.9
90000 kPa | 1694.2 | 1664.9 | 1636.4 | 1608.6 | 1581.5 | 1555.3 | 1529.8
100000 kPa | 1720.6 | 1692 | 1663.9 | 1636.7 | 1610.2 | 1584.4 | 1559.5

COCCOCCOCCOC [2,5,8,11-tetraoxadodecane]
speed of sound [m/s]
Conditions | 293.15 K | 303.15 K | 313.15 K | 323.15 K | 333.15 K | 343.15 K | 353.15 K
100 kPa | 1361.9 | 1323.2 | 1285.1 | 1247.7 | 1210.9 | 1174.6 | 1138.7
10000 kPa | 1403.1 | 1366.5 | 1330 | 1294.6 | 1259.5 | 1225.1 | 1191.5
20000 kPa | 1442.5 | 1407.2 | 1372.2 | 1338.5 | 1304.8 | 1272 | 1240
30000 kPa | 1479.3 | 1445.2 | 1411.8 | 1379.1 | 1346.9 | 1315.6 | 1284.6
40000 kPa | 1514.7 | 1481.6 | 1448.8 | 1417.3 | 1386.3 | 1356.2 | 1326.2
50000 kPa | 1547.8 | 1515.7 | 1484.1 | 1453.6 | 1423.4 | 1394.1 | 1365.6
60000 kPa | 1579.5 | 1548.2 | 1517.5 | 1487.9 | 1458.8 | 1430.3 | 1402.4
70000 kPa | 1610 | 1579.4 | 1549.7 | 1520.7 | 1492.1 | 1464.6 | 1437.6
80000 kPa | 1639.3 | 1609.3 | 1580.3 | 1552 | 1524.3 | 1497.2 | 1470.9
90000 kPa | 1667.4 | 1638.2 | 1609.9 | 1581.9 | 1554.8 | 1528.4 | 1502.6
100000 kPa | 1694.6 | 1665.9 | 1638.1 | 1610.8 | 1584.3 | 1558.5 | 1533.4

Reference: the NIST ThermoML archive (doi:10.1021/je034036t)
